≈ marks a conversion by molar mass, not a printed value.
Key:
[1] = Biodegradability, tested according to OECD 306
Description: (§1) Organosilanes for use in the invention include, for example, organosilane hydrides, organosilane alkoxides and organosilane amines. Organosilane compounds have the advantage that they are typically oil-soluble and have the necessary reactivity with water. […] Organosilanes for use in the invention preferably have a biodegradability of at least 60%.

[2] = test system: algae; assay: Algae toxicity (IC50 algae); format: cell-based
Description: as §1

[3] = Fish toxicity (LC50 fish); conditions: in vivo
Description: as §1

[4] = test system: daphnia; assay: Daphnia toxicity (EC50 daphnia); format: in vivo
Description: as §1

Row | Compound | biodegradability [1] [%] | IC50 [2] [µg/mL] | LC50 [3] [µg/mL] | EC50 [4] [µg/mL]
1 | CCO[Si](CCCN)(OCC)OCC [DYNASYLAN AMEO, 3-amino-propyltriethoxysilane] | 67 | 603 (≈ 2720 µM) | 934 (≈ 4220 µM) | 331 (≈ 1500 µM)
2 | CCO[Si](CCCNCCC[Si](OCC)(OCC)OCC)(OCC)OCC [DYNASYLAN bis-AMEO, bis(triethoxysilylpropyl)amine] | 64.5 | 125 (≈ 294 µM) | > 200 | > 200
